# Experiments:
# Mus musculus = organism: Mus musculus; test: Percentage control against LPS stimulated IL-1-alpha formation in murine peritoneal macrophages was measured by IL-1-alpha ELISA; type: functional; set-up: concentration or dose not given beside the values
# [1] = test system: Moloney murine leukemia virus; test: Compound was tested for its antagonistic activity against Moloney leukemia virus (MoLV) replication; type: functional, organism-based
Compound,IC50 [1] [µM],Control (Mus musculus) [%]
CCCCCCCCCCCCC[S+](=N)([O-])CC(=O)OCC (stereo not given),24,190
C/C=C/C/C=C/CCC(=O)[C@H]1O[C@H]1C(N)=O [CERULENIN],2.7,170

# Now from value to compound, other results behind:
IC50 [1] [µM],Compound,Control (Mus musculus) [%]
10,CCCCCCCCCCCCC[S+](=N)([O-])CCC (stereo not given),206
5,CCCCCCCCCCCCC[S+](C)(=N)[O-] (stereo not given),123
15,CCCCCCCCCCCCC[S+](=N)([O-])Cc1ccccc1 (stereo not given),326

# Source: ChEMBL document CHEMBL1126537, “Synthesis and biological activity of sulfoximine-modified myristic acid analogues” (Bioorg Med Chem Lett, 1993)
